In patent US20170042196A1, “USE OF UMAMI COMPOUNDS TO ENHANCE SALTINESS” (Senomyx, Inc., priority 2015, published 2017):

Legend:
Format in all cases: in vivo
[1] = system: trained panelists (saltiness perception); experiment: 2-Alternative Forced Choice human taste test, saltiness in low sodium chicken broth; conditions: for Sample selected as saltier by panelists (Total): 55° C.; for saltiness of test sample versus control sample: p<0.1
Experimental: Samples of low sodium chicken broth were prepared and compared using human taste tests. Control samples contained low sodium chicken broth alone. Test samples contained the same low sodium chicken broth to which a specific umami compound was added at a specified concentration. To prepare the test sample, a concentrated stock solution of an umami compound was prepared in ethanol. […] To create the control sample, the chicken broth was balanced with 0.1% ethanol. All samples were served at 55° C. Trained panelists were used to complete the test with three replicates (subject number reported in each table). A 2-Alternative Forced Choice test was used, where panelists received two three-digit blind-coded samples, one control and one test sample, in randomized, counter-balanced order. Panelists tasted samples, rinsing with water between samples, and indicated which of the two samples was […]. The results were analyzed using a binomial distribution with alpha=0.1.

[2] = system: trained panelists (saltiness perception); experiment: 2-Alternative Forced Choice human taste test, saltiness in chicken broth (low sodium broth + 100 mM NaCl); conditions: for Sample selected as saltier by panelists (Total): 0.1% ethanol, 55° C.; for saltiness of test sample versus control sample: p<0.1
Experimental: Samples of chicken broth were prepared and compared using human taste tests. Control samples contained chicken broth alone. Test samples contained the same chicken broth to which a specific umami compound was added at a specified concentration. To prepare the test sample, a concentrated stock solution of an umami compound was prepared in ethanol. The stock solution was added to a commercially available no-MSG added, low sodium chicken broth (Pacific Organic Free Range Chicken Broth Low Sodium), to which 100 mM NaCl was also added, resulting in a final concentration of the umami compound in the test sample with 0.1% ethanol. To create the control sample, 100 mM NaCl was added to the low sodium chicken broth, and it was balanced with 0.1% ethanol. All samples were served at 55° C. A 2-Alternative Forced Choice test was used, where panelists received two three-digit blind-coded samples, one control and one test sample, in randomized, counter-balanced order. Panelists tasted samples, rinsing with water between samples, and indicated which of the two samples was […]. The results were analyzed using a binomial distribution with alpha=0.1.

[3] = system: trained panelists (saltiness perception); experiment: Difference from Reference scaling human taste test, saltiness in low sodium chicken broth
Experimental: Samples of low sodium chicken broth were prepared and compared using human taste tests. The reference samples contained low sodium chicken broth alone. The test samples contained the same low sodium chicken broth to which a specific umami compound was added. To prepare the test samples, a concentrated stock solution of an umami compound was prepared in ethanol. The stock solution was added to a commercially available no-MSG added, low sodium chicken broth (Pacific Organic Free Range Chicken Broth Low Sodium), resulting in a final concentration of the umami compound in the test sample with 0.1% ethanol. To create the reference sample, the low sodium chicken broth was balanced with 0.1% ethanol. All samples were served at 55° C. Trained panelists were used to complete the test with two replicates (subject number reported in each table). A Difference from Reference scaling test was used. Panelists received pairs of samples, consisting of the reference sample and a three-digit blind coded sample, which was either the reference sample again (i.e., a negative control), or the test sample containing the compound of interest. Panelists first tasted the reference sample, then rinsed with water and tasted the blind-coded sample. Panelists were asked to score the test sample for differences in saltiness as compared to the reference sample. […] The test also included measurement of other attributes rated on separate scales (e.g., umami intensity, bitterness, and chicken flavor) to ensure responses for saltiness focused solely on that attribute. The order in which panelists received sample pairs containing either the reference or the test sample as the three-digit blind coded sample was randomized and counterbalanced. The results were analyzed using a two-tailed Student's t-test, with alpha=0.1.

CCCC(CCC)NC(=O)c1ccc2c(c1)OCO2 [Formula (1a)]
Sample selected as saltier by panelists (Total) ([1]; 2 ppm in low sodium chicken broth, 0.05% ethanol, n = 48 (16 panelists × 3 replicates)): 35 | saltiness of test sample versus control sample ([1]; 2 ppm in low sodium chicken broth): significantly saltier | Sample selected as saltier by panelists (Total) ([2]; 2 ppm in chicken broth (100 mM NaCl added), n = 48 (16 panelists × 3 replicates)): 31 | saltiness of test sample versus control sample ([2]; 2 ppm in chicken broth (100 mM NaCl added)): significantly saltier

COc1cccc(-c2n[nH]c(SCc3ccccn3)n2)c1OC [Formula (1b)]
Sample selected as saltier by panelists (Total) ([1]; 5 ppm in low sodium chicken broth, 0.1% ethanol, n = 48 (16 panelists × 3 replicates)): 33 | saltiness of test sample versus control sample ([1]; 5 ppm in low sodium chicken broth): significantly saltier | Average Saltiness Score of Test Sample as compared to Reference Sample ([3]; 5 ppm in low sodium chicken broth, 11-point scale −5 to +5, n = 24 (12 panelists × 2 replicates)): 0.7 | saltiness of test sample versus reference sample ([3]; 5 ppm in low sodium chicken broth, p<0.1): significantly saltier

COc1cc(C)ccc1CNC(=O)C(=O)NCCc1ccccn1 [Formula (1c)]
Sample selected as saltier by panelists (Total) ([1]; 1 ppm in low sodium chicken broth, 0.1% ethanol, n = 48 (16 panelists × 3 replicates)): 36 | saltiness of test sample versus control sample ([1]; 1 ppm in low sodium chicken broth): significantly saltier | Sample selected as saltier by panelists (Total) ([2]; 1 ppm in chicken broth (100 mM NaCl added), n = 51 (17 panelists × 3 replicates)): 33 | saltiness of test sample versus control sample ([2]; 1 ppm in chicken broth (100 mM NaCl added)): significantly saltier

COc1cccc(CNC(=O)C(=O)NCCc2ccccn2)c1OC [Formula (1d)]
Sample selected as saltier by panelists (Total) ([1]; 8 ppm in low sodium chicken broth, 0.1% ethanol, n = 51 (17 panelists × 3 replicates)): 37 | saltiness of test sample versus control sample ([1]; 8 ppm in low sodium chicken broth): significantly saltier | Sample selected as saltier by panelists (Total) ([2]; 8 ppm in chicken broth (100 mM NaCl added), n = 48 (16 panelists × 3 replicates)): 31 | saltiness of test sample versus control sample ([2]; 8 ppm in chicken broth (100 mM NaCl added)): significantly saltier | Average Saltiness Score of Test Sample as compared to Reference Sample ([3]; 8 ppm in low sodium chicken broth, 11-point scale −5 to +5, n = 30 (15 panelists × 2 replicates)): 0.8 | saltiness of test sample versus reference sample ([3]; 8 ppm in low sodium chicken broth, p<0.1): significantly saltier

COC[C@@H](CC(C)C)NC(=O)c1ccc(C)c(C)c1 [Formula (1e)]
Sample selected as saltier by panelists (Total) ([1]; 2 ppm in low sodium chicken broth, 0.1% ethanol, n = 51 (17 panelists × 3 replicates)): 32 | saltiness of test sample versus control sample ([1]; 2 ppm in low sodium chicken broth, 0.1% ethanol): significantly saltier | Average Saltiness Score of Test Sample as compared to Reference Sample ([3]; 2 ppm in low sodium chicken broth, 11-point scale −5 to +5, n = 30 (15 panelists × 2 replicates)): 0.5 | saltiness of test sample versus reference sample ([3]; 2 ppm in low sodium chicken broth, p<0.1): significantly saltier

COc1cc(C)ccc1CNC(=O)C(=O)NCCc1ccc(C)cn1 [Formula (1f)]
Sample selected as saltier by panelists (Total) ([2]; 2 ppm Formula (1f) in chicken broth (100 mM NaCl added), n = 48 (16 panelists × 3 replicates)): 32 | saltiness of test sample versus control sample ([2]; 2 ppm Formula (1f) in chicken broth (100 mM NaCl added)): significantly saltier | Average Saltiness Score of Test Sample as compared to Reference Sample ([3]; 1 ppm in low sodium chicken broth, 11-point scale −5 to +5, n = 26 (13 panelists × 2 replicates)): 1.0 | saltiness of test sample versus reference sample ([3]; 1 ppm in low sodium chicken broth, n = 26, p<0.1): significantly saltier

COc1ccc(CNC(=O)C(=O)NCCc2ccccn2)c(OC)c1 [Formula (1g)]
Average Saltiness Score of Test Sample as compared to Reference Sample ([3]; 1 ppm in low sodium chicken broth, 11-point scale −5 to +5, n = 30 (15 panelists × 2 replicates)): 0.5 | saltiness of test sample versus reference sample ([3]; 1 ppm in low sodium chicken broth, n = 30, p<0.1): significantly saltier
